molecular target: T1, rat mGluR5 receptor (Rattus norvegicus, UniProt P31424); experiment: [3H]-MPEP displacement binding assay, HEK-293 cell membranes expressing rat mGluR5; details: [3H]-MPEP displacement, rat mGluR5; no Ki given; read-out: IC50 (printed in the Median Ki column instead of a Ki)
T1 construct: expressed in transfected cells; host or cells: HEK-293
Summary of the method: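 Membranes from HEK-293 cells expressing rat mGluR5 (12-25 μg protein), incubated 60 min at room temperature with 4 nM [3H]-MPEP in 50 mM Tris pH 7.5, then filtered. Nonspecific binding defined with 10 μM MPEP.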

T1 sequence (P31424 21-1203): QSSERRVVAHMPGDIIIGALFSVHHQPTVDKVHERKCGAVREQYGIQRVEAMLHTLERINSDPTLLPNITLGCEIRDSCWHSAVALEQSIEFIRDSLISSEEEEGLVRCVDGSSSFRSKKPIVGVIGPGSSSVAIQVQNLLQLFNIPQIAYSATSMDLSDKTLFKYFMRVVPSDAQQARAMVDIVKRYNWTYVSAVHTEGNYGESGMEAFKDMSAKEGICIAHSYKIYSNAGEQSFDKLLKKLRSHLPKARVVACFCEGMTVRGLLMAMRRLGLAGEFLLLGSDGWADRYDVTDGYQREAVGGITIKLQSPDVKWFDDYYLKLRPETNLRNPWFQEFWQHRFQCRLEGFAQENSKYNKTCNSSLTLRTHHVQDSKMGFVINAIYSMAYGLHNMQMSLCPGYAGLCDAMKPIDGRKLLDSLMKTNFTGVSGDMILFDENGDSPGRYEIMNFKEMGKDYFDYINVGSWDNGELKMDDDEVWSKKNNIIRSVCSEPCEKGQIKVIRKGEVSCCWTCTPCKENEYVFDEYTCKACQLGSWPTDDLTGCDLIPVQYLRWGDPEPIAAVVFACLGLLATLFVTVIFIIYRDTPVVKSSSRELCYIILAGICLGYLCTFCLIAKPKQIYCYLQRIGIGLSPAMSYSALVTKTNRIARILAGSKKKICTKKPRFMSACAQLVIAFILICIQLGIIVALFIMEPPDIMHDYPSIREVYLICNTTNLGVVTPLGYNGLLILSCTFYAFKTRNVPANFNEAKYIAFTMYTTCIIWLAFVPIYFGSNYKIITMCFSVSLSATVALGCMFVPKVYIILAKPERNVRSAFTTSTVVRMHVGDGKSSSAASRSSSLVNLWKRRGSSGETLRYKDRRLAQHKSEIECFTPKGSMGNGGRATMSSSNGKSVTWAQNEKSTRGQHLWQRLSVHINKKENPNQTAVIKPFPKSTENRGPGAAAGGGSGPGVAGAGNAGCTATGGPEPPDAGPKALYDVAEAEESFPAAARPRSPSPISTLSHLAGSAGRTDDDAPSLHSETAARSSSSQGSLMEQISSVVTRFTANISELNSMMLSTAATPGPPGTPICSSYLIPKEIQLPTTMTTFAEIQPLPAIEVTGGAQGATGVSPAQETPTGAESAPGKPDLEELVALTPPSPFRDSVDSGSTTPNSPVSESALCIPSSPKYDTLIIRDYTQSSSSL

SMILES	IC50 [µM]
COc1ccc(C(=O)N2CCN(c3ncccc3Cl)CC2)cc1C#Cc1cccc(OCc2ccccc2)c1 [Compound 343, 1-(3-{[3-(benzyloxy)phenyl]ethynyl}-4-methoxybenzoyl)-4-(3-chloropyridin-2-yl)piperazine]	> 10
COc1ccc(C(=O)N2CCN(c3ncccc3Cl)CC2)cc1C#Cc1cccc(OC(F)(F)F)c1 [Compound 344, 1-(3-chloropyridin-2-yl)-4-(4-methoxy-3-{[3-(trifluoromethoxy)phenyl]ethynyl}benzoyl)piperazine]	> 10
COc1ccc(C(=O)N2CCN(c3ncccc3Cl)CC2)cc1C#Cc1ccc([N+](=O)[O-])cc1 [Compound 350, 1-(3-chloropyridin-2-yl)-4-{4-methoxy-3-[(4-nitrophenyl)ethynyl]benzoyl}piperazine]	> 10
COc1ccc(C(=O)N2CCN(c3ncccn3)CC2)cc1C#Cc1ccc(OCc2ccccc2)cc1 [Compound 358, 2-[4-(3-{[4-(benzyloxy)phenyl]ethynyl}-4-methoxybenzoyl)piperazin-1-yl]pyrimidine]	> 10

Next, values leading:

IC50 [µM]	SMILES
> 10	COc1ccc(C(=O)N2CCN(c3ncccc3Cl)CC2)cc1C#Cc1ccccc1[N+](=O)[O-] [Compound 342, 1-(3-chloropyridin-2-yl)-4-{4-methoxy-3-[(2-nitrophenyl)ethynyl]benzoyl}piperazine]
> 10	COc1ccc(C(=O)N2CCN(c3ncccc3Cl)CC2)cc1C#Cc1ccc(OCc2ccccc2)cc1 [Compound 346, 1-(3-{[4-(benzyloxy)phenyl]ethynyl}-4-methoxybenzoyl)-4-(3-chloropyridin-2-yl)piperazine]
> 10	COc1ccc(C(=O)N2CCN(c3ncccc3Cl)CC2)cc1C#Cc1ccc(C(C)=O)cc1 [Compound 347, 1-{4-[(5-{[4-(3-chloropyridin-2-yl)piperazin-1-yl]carbonyl}-2-methoxyphenyl)ethynyl]phenyl}ethanone]
> 10	COc1ccc(C(=O)N2CCN(c3ncccc3Cl)CC2)cc1C#Cc1ccc(OC(F)(F)F)cc1 [Compound 348, 1-(3-chloropyridin-2-yl)-4-(4-methoxy-3-{[4-(trifluoromethoxy)phenyl]ethynyl}benzoyl)piperazine]
> 10	COc1ccc(C(=O)N2CCN(c3ncccc3Cl)CC2)cc1C#Cc1ccc(C(F)(F)F)cc1 [Compound 349, 1-(3-chloropyridin-2-yl)-4-(4-methoxy-3-{[4-(trifluoromethyl)phenyl]ethynyl}benzoyl)piperazine]

same assay, conditions: [3H]-MPEP displacement, rat mGluR5; read-out: Median Ki

SMILES	Ki [µM]
O=C(c1ccc(OC(F)(F)F)c(C#Cc2ccccn2)c1)N1CCN(c2ncccc2Cl)CC1 [Compound 336, 1-(3-chloropyridin-2-yl)-4-[3-(pyridin-2-ylethynyl)-4-(trifluoromethoxy)benzoyl]piperazine]	1.07
O=C(c1ccc(OC(F)(F)F)c(C#Cc2ccccn2)c1)N1CCN(c2cccc(C(F)(F)F)c2)CC1 [Compound 337, 1-[3-(pyridin-2-ylethynyl)-4-(trifluoromethoxy)benzoyl]-4-[3-(trifluoromethyl)phenyl]piperazine]	1.57
COc1nc(N2CCN(C(=O)c3ccc(OC(F)(F)F)c(C#Cc4ccccn4)c3)CC2)ncc1Br [Compound 339, 5-bromo-4-methoxy-2-{4-[3-(pyridin-2-ylethynyl)-4-(trifluoromethoxy)benzoyl]piperazin-1-yl}pyrimidine]	0.702
COc1ccc(C(=O)N2CCN(c3ncccc3Cl)CC2)cc1C#Cc1ccccc1 [Compound 341, 1-(3-chloropyridin-2-yl)-4-[4-methoxy-3-(phenylethynyl)benzoyl]piperazine]	1.13
COc1ccc(C(=O)N2CCN(c3ncccc3Cl)CC2)cc1C#Cc1ccccc1F [Compound 351, 1-(3-chloropyridin-2-yl)-4-{3-[(2-fluorophenyl)ethynyl]-4-methoxybenzoyl}piperazine]	4.3
COc1ccc(C(=O)N2CCN(c3ncccn3)CC2)cc1C#Cc1cccnc1 [Compound 354, 2-{4-[4-methoxy-3-(pyridin-3-ylethynyl)benzoyl]piperazin-1-yl}pyrimidine]	4.97
COc1ccc(C(=O)N2CCN(c3ncccn3)CC2)cc1C#Cc1ccncc1 [Compound 355, 2-{4-[4-methoxy-3-(pyridin-4-ylethynyl)benzoyl]piperazin-1-yl}pyrimidine]	1.57
COc1ccc(C(=O)N2CCN(c3ncccn3)CC2)cc1C#Cc1cccc(OC(F)(F)F)c1 [Compound 356, 2-[4-(4-methoxy-3-{[3-(trifluoromethoxy)phenyl]ethynyl}benzoyl)piperazin-1-yl]pyrimidine]	0.29
COc1ccc(C(=O)N2CCN(c3ncccn3)CC2)cc1C#Cc1cccc([N+](=O)[O-])c1 [Compound 357, 2-(4-{4-methoxy-3-[(3-nitrophenyl)ethynyl]benzoyl}piperazin-1-yl)pyrimidine]	0.239
COc1ccc(C(=O)N2CCN(c3ncccn3)CC2)cc1C#Cc1ccccc1Cl [Compound 360, 2-(4-{3-[(2-chlorophenyl)ethynyl]-4-methoxybenzoyl}piperazin-1-yl)pyrimidine]	4.5

Further lines, results first:

Ki [µM]	SMILES
1.34	O=C(c1ccc(OCC2CC2)c(C#Cc2ccccn2)c1)N1CCN(c2ncccn2)CC1 [Compound 325, 2-(4-{[4-(cyclopropylmethoxy)-3-(pyridin-2-ylethynyl)phenyl]carbonyl}piperazin-1-yl)pyrimidine]
0.122	COc1ccc(C(=O)N2CCN(c3ccccn3)C(=O)C2)cc1C#Cc1ccccn1 [Compound 330, 4-{[4-methoxy-3-(pyridin-2-ylethynyl)phenyl]carbonyl}-1-pyridin-2-ylpiperazin-2-one]
3.19	COc1ccc(C(=O)N2CCN(c3ncccc3Cl)CC2)cc1C#Cc1ccc(Cl)cc1 [Compound 352, 1-{3-[(4-chlorophenyl)ethynyl]-4-methoxybenzoyl}-4-(3-chloropyridin-2-yl)piperazine]
0.287	COc1ccc(C(=O)N2CCN(c3ncccn3)CC2)cc1C#Cc1ccccc1F [Compound 359, 2-(4-{3-[(2-fluorophenyl)ethynyl]-4-methoxybenzoyl}piperazin-1-yl)pyrimidine]
0.891	COc1ccc(C(=O)N2CCN(c3ncccn3)CC2)cc1C#Cc1ccc(Cl)cc1 [Compound 363, 2-(4-{3-[(4-chlorophenyl)ethynyl]-4-methoxybenzoyl}piperazin-1-yl)pyrimidine]
0.23	COc1ccc(C(=O)N2CCN(c3ncccn3)CC2)cc1C#Cc1cccc(OC(F)F)c1 [Compound 364, 2-[4-(3-{[3-(difluoromethoxy)phenyl]ethynyl}-4-methoxybenzoyl)piperazin-1-yl] pyrimidine]

same assay, conditions: [3H]-MPEP displacement, rat mGluR5 membranes; read-out: Median Ki

SMILES	Ki [µM]
N#Cc1nccnc1N1CCN(C(=O)c2ccc(C(F)(F)F)c(C#Cc3ccccn3)c2)CC1 [Compound 366, 3-(4-{[3-(pyridin-2-ylethynyl)-4-(trifluoromethyl)phenyl]carbonyl}piperazin-1-yl) pyrazine-2-carbonitrile]	0.459
O=C(c1ccc(C(F)(F)F)c(C#Cc2ccccn2)c1)N1CCN(c2ncc(Cl)cc2Cl)CC1 [Compound 368, 1-(3,5-dichloropyridin-2-yl)-4-{[3-(pyridin-2-ylethynyl)-4-(trifluoromethyl)phenyl]carbonyl}piperazine]	2.92
O=C(c1ccc(C(F)(F)F)c(C#Cc2ccccn2)c1)N1CCN(c2ncccn2)CC1 [Compound 370, 2-(4-{[3-(pyridin-2-ylethynyl)-4-(trifluoromethyl)phenyl]carbonyl}piperazin-1-yl)pyrimidine]	0.164
O=C(c1ccc(C(F)(F)F)c(C#Cc2ccccn2)c1)N1CCN(Cc2cccc(F)c2)CC1 [Compound 376, 1-(3-fluorobenzyl)-4-{[3-(pyridin-2-ylethynyl)-4-(trifluoromethyl)phenyl]carbonyl}piperazine]	0.811
O=C(c1ccc(C(F)(F)F)c(C#Cc2ccccn2)c1)N1CCN(c2ccc(C(F)(F)F)cn2)CC1 [Compound 379, 1-{[3-(pyridin-2-ylethynyl)-4-(trifluoromethyl)phenyl]carbonyl}-4-[5-(trifluoromethyl)pyridin-2-yl]piperazine]	3.13
Cc1cccc(N2CCN(C(=O)c3ccc(C(F)(F)F)c(C#Cc4ccccn4)c3)CC2)n1 [Compound 380, 1-(6-methylpyridin-2-yl)-4-{[3-(pyridin-2-ylethynyl)-4-(trifluoromethyl)phenyl]carbonyl}piperazine]	0.352

Continued, values first:

Ki [µM]	SMILES
1	O=C(c1ccc(C(F)(F)F)c(C#Cc2ccccn2)c1)N1CCN(c2ncccc2Cl)CC1 [Compound 371, 1-(3-chloropyridin-2-yl)-4-{[3-(pyridin-2-ylethynyl)-4-(trifluoromethyl)phenyl]carbonyl}piperazine]
0.292	Cc1ccc(N2CCN(C(=O)c3ccc(C(F)(F)F)c(C#Cc4ccccn4)c3)CC2)nc1 [Compound 372, 1-(5-methylpyridin-2-yl)-4-{[3-(pyridin-2-ylethynyl)-4-(trifluoromethyl)phenyl]carbonyl}piperazine]
0.162	O=C(c1ccc(C(F)(F)F)c(C#Cc2ccccn2)c1)N1CCN(c2cnccn2)CC1 [Compound 381, 2-(4-{[3-(pyridin-2-ylethynyl)-4-(trifluoromethyl)phenyl]carbonyl}piperazin-1-yl)pyrazine]

same assay, conditions: bound printed in place of a Ki; read-out: IC50 (printed in the Median Ki column)

IC50 [µM]	SMILES
> 10	COc1nc(N2CCN(C(=O)c3ccc(C(F)(F)F)c(C#Cc4ccccn4)c3)CC2)ncc1Br [Compound 365, 5-bromo-4-methoxy-2-(4-{[3-(pyridin-2-ylethynyl)-4-(trifluoromethyl)phenyl]carbonyl}piperazin-1-yl)pyrimidine]
> 10	O=C(c1ccc(C(F)(F)F)c(C#Cc2ccccn2)c1)N1CCN(c2nc3ccccc3s2)CC1 [Compound 377, 2-(4-{[3-(pyridin-2-ylethynyl)-4-(trifluoromethyl)phenyl]carbonyl}piperazin-1-yl)-1,3-benzothiazole]

Source: patent US20090325964A1, “Piperazine Metabotropic Glutamate Receptor 5 (MGLUR5) Negative Allosteric Modulators For Anxiety/Depression” (Wyeth, priority 2008, published 2009)
